From patent publication US20260137711A1, “COMBINATION THERAPY FOR CANCER” (NATIONAL UNIVERSITY OF IRELAND, GALWAY, priority 2022, published 2026)

Columns and labels:
MCF10A cells = experiment: Long-term cell proliferation assay, crystal violet staining; assay type: cell-based, human; conditions: 7 days
Experimental: (a and b) MCF10A cells were plated at equal low density and then either mock treated or treated with 31 nM BI-1347, in the presence or absence of XL413 at a doses of (a) 1.25 μM or (b) 10 μM over a 7 day period. Representative images of crystal violet-stained cells are shown alongside quantitation of crystal violet intensity normalised to the untreated control.
Briefly, MCF10A cells were mock-treated or treated in the continued presence of a dual-specificity CDK8/CDK19 inhibitor, BI-1347, in the presence or absence of XL413 at two different concentrations (1.25 μM and 10 μM) for a 7-day period. Relative cell proliferation was estimated by staining cells with crystal violet and measuring staining intensities. […] Importantly the addition of BI-1347 to XL413 caused a further reduction in cell number with staining intensity decreasing by 70% and 95% respectively.
MCF10A cells were seeded at 4,000 cells per well of a 6 well plate and after 24 hours were treated with inhibitors before being incubated for 7 days at 37° C. with 5% CO2. Media was removed from the cells which were then washed with PBS and air dried before being fixed with 100% methanol for 1 hour. Following removal of methanol the plates were air-dried, stained with crystal violet staining solution (0.2% crystal violet, 25% methanol) for 1 hour at room temperature, washed with ddH2O and air-dried. Plates were scanned using a HP Scanjet 4050, to generate images of crystal violet stained cells, and crystal violet staining intensity was acquired using the Odyssey infrared imaging system and Image Studio software (LI-COR Biosciences).

MCF10A EditR cells = experiment: Pooled genome-wide CRISPR/Cas9 screen with XL413 (cell proliferation, sgRNA abundance, MAGeCK beta scores); assay type: cell-based, human; conditions: for XL413 beta score: 1.25 μM XL413, day 0 to day 24; for Differential beta score (Treatment − Control): XL413-treated minus untreated
Experimental: Supplemental FIG. 1: CRISPR/Cas9 screen: Cell proliferation curves, summary of sgRNA coverage, and genes of interest identified (a-c) Proliferation curves of MCF10A EditR cells expressing sgRNAs from CRISPR library modules I, II and III in the absence (untreated) or presence of 1.25 μM XL413. Data is from three independent counts of each sample ±standard deviation (SD). (d) DNA extracted from samples of the CRISPR/Cas9 screen, which were harvested on day 0 and after 20 or 24 days of growth in the absence (untreated) or presence of 1.25 μM XL413, respectively, was analysed by next generation sequencing. Sequence data was mapped to a CELLECTA genome-wide sgRNA reference library using the MAGeCKFlute pipeline. (d) The table summarises the total and missing number of sgRNAs, the calculated % sgRNA coverage and the number of missing genes.
A genome-wide CRIPSR/Cas9 loss of function screen identifies genes that affect proliferation rate in response to a CDC7 inhibitor In order to identify genes that change the rate of proliferation when DNA synthesis is mildly limited by CDC7 inhibition, we performed a CRISPR/Cas9 genome-wide knockout screen as outlined in FIG. 1a. Briefly, MCF10A EditR cells that stably express Cas9 were transduced with a lentiviral-sgRNA library targeting approximately 19,000 coding genes and then were either untreated or treated with 1.25 μM of selective ATP competitive CDC7 inhibitor, XL413 (Koltun et al., 2012). […] Next generation sequencing was then used to determine sgRNA abundance at day 0, day 20 untreated and day 24 XL413 treated cells. […] CRISPR/Cas9-mediated loss of function of genes involved in supporting proliferation in untreated cells or in response to CDC7 inhibition is expected to result in a decreased relative abundance of the corresponding sgRNAs in the cell population. […] When the genes were ranked according to the magnitude of the effect, CDK8, a gene that expresses a component of the CDK8/CDK19-CCNC-MED12-MED 13 mediator complex kinase-module (Dannappel et al., 2019; Fant and Taatjes, 2019; Menzl et al., 2019), came out as the top hit (FIG. 1b and Table 1, ranked 19012 out of 19012 genes).
MCF10A EditR cells (120×10^6 per module) were transduced with individual modules (Modules I, II and III) in the presence of 5 µg/ml polybrene at a Multiplicity of Infection (MoI) of 0.4 achieving ˜600-fold guide representation. After 24 hours, transduced cells were harvested, replated and selected with puromycin ([…]) for 6 days. Puromycin resistant cells were harvested and a sample of ˜30×10^6 cells taken for analysis by next generation sequencing (NGS) at the start of the screen (day 0). The remaining puromycin resistant cells from each module were cultured independently from each other in untreated and XL413 treated ([…]) experimental branches. Throughout the screen cell proliferation and viability were determined by cell counting on a LunaII automated cell counter (Logos Biosystems) using trypan blue exclusion. Cells were cultured, harvested, reseeded and retreated every 4 days in order to maintain ˜600-fold guide representation. Finally at day 20 for the untreated branch and at day 24 for the XL413-treated branche, cells were harvested and a sample of ˜30×10^6 cells taken for analysis by NGS.
FASTQ files obtained by NGS were analysed using the MAGeCKFlute pipeline (Wang et al., 2019) as outlined below. MAGeCK was used to perform adaptor trimming, mapping of trimmed sgRNAs and associated sequencing reads to the CELLECTA sgRNA reference library, and a quality control assessment of the sequencing quality and screen data. Following quality control inspection, sgRNA read count data from the day 0 vs day 20 untreated and day 0 vs day 24 XL413-treated (1.25 μM) conditions were modelled using a negative-binomial distribution by MAGeCK-MLE to calculate a beta score for each targeted gene. Negative control sgRNAs in the CELLECTA library were used by MAGeCK-MLE to normalize the read counts between samples. […]

Which results are given for Cl.O=c1[nH]c([C@@H]2CCCN2)nc2c1oc1ccc(Cl)cc12 [XL413]?
relative intensity reduction (crystal violet) (MCF10A cells; 1.25 μM XL413 alone): ~15%; relative intensity reduction (crystal violet) (MCF10A cells; 10 μM XL413 alone): 70%; cell proliferation over the course of the screen (MCF10A EditR cells; 1.25 μM XL413, cells expressing sgRNA library): only mildly suppressed; XL413 beta score (MCF10A EditR cells; gene CCNC targeted by sgRNAs): −1.0759; Differential beta score (Treatment − Control) (MCF10A EditR cells; gene CCNC targeted by sgRNAs): −0.3602; XL413 beta score (MCF10A EditR cells; gene CDK8 targeted by sgRNAs): −1.6094; Differential beta score (Treatment − Control) (MCF10A EditR cells; gene CDK8 targeted by sgRNAs): −1.4391; XL413 beta score (MCF10A EditR cells; gene CDK19 targeted by sgRNAs): −0.2393; Differential beta score (Treatment − Control) (MCF10A EditR cells; gene CDK19 targeted by sgRNAs): 0.0034; XL413 beta score (MCF10A EditR cells; gene MED12 targeted by sgRNAs): −0.8276; Differential beta score (Treatment − Control) (MCF10A EditR cells; gene MED12 targeted by sgRNAs): 0.0928; XL413 beta score (MCF10A EditR cells; gene MED13 targeted by sgRNAs): 0.0939; Differential beta score (Treatment − Control) (MCF10A EditR cells; gene MED13 targeted by sgRNAs): 0.0062; XL413 beta score (MCF10A EditR cells; gene RIF1 targeted by sgRNAs): −0.0162; Differential beta score (Treatment − Control) (MCF10A EditR cells; gene RIF1 targeted by sgRNAs): 0.7442
